Read-outs that look alike come from different tables or passages of the source.
What was measured:
[1] = test system: EMT6 tumor (spontaneous mammary carcinoma of mice); assay: Scintillation imaging (specificity), BALB mice; assay type: in vivo, mouse
Description: The mice bearing grafted tumors are anesthetized by the i.p. injection of sodium pentobarbital 1/5 and immobilized under a scintillation camera (Gammatome II, CGR) equipped with a pinhole 3-360 collimator, sensitivity 3.2 10^-4.

[2] = Tissue distribution in Swiss nu/nu SSCUP mice bearing Beu; assay type: in vivo, human; conditions: mouse, iv, 3 umol/animal
Protocol: The study of the tissue distribution of the ^125 I labelled compounds was performed in mice bearing grafted melanomas (cf. autoradiograms above). […] The animals are sacrificed at different time intervals of 1 to 24 hours after the injection. The blood is collected and the principal organs are excised. Aliquots are weighed and the radioactivity of the samples is measured in a […] 1191 counter (analytic tracer). The counting yield for iodine 125 is 60%. The results are expressed: as a percentage of the injected dose bound per g of tissue (% ID/g); in the form of the ratios [formula] This ratio reflects more precisely the selectivity of a molecule for an organ (tables 2, 4, 6, 8, 10 and 12).

[3] = test system: human and murine melanomas; assay: Scintillation imaging in human and murine melanoma models (B16, B16 pulmonary metastases, Beu, Dau, FOSS(ORIS)); assay type: in vivo, human; mouse
Description: The mice bearing grafted tumors are anesthetized by the i.p. injection of sodium pentobarbital 1/5 and immobilized under a scintillation camera (Gammatome II, CGR) equipped with a pinhole 3-360 collimator, sensitivity 3.2 10^-4. […] C57 BL6 bearing pulmonary metastases of B16 melanoma.

[4] = intestine, read-out: intestine % ID/g
[5] = kidney, read-out: kidney % ID/g
[6] = muscle, read-out: muscle % ID/g
[7] = pancreas, read-out: pancreas % ID/g
[8] = plasma, read-out: plasma % ID/g
[9] = spleen, read-out: spleen % ID/g
[10] = stomach, read-out: stomach % ID/g
[11] = submaxillary glands, read-out: submaxillary glands % ID/g

CCN(CC)CCNC(=O)c1ccc(I)cc1 [Derivative A, N-(2-diethylaminoethyl) 4-iodo benzamide]
tumor image ([1]; ^123 I label): absence of images
tumor image ([1]; after injection of A): not obtained any image
tissue uptake at 1 h ([2]; blood, read-out: blood % ID/g): 0.87 %ID/g
tissue uptake at 2 h ([2]; blood, read-out: blood % ID/g): 0.53 %ID/g
tissue uptake at 4 h ([2]; blood, read-out: blood % ID/g): 0.32 %ID/g
tissue uptake at 6 h ([2]; blood, read-out: blood % ID/g): 0.13 %ID/g
tissue uptake at 24 h ([2]; blood, read-out: blood % ID/g): 0.01 %ID/g
tissue uptake at 8 h ([2]; blood, 8 h, read-out: blood % ID/g): 0.05 %ID/g
tissue uptake at 12 h ([2]; blood, read-out: blood % ID/g): 0.02 %ID/g
tissue uptake at 1 h ([2]; brain, read-out: brain % ID/g): 1.66 %ID/g
tissue uptake at 2 h ([2]; brain, read-out: brain % ID/g): 1.13 %ID/g
tissue uptake at 4 h ([2]; brain, read-out: brain % ID/g): 0.78 %ID/g
tissue uptake at 6 h ([2]; brain, read-out: brain % ID/g): 0.28 %ID/g
tissue uptake at 24 h ([2]; brain, read-out: brain % ID/g): 0.006 %ID/g
tissue uptake at 8 h ([2]; brain, 8 h, read-out: brain % ID/g): 0.13 %ID/g
tissue uptake at 12 h ([2]; brain, read-out: brain % ID/g): 0.01 %ID/g
tissue uptake at 1 h ([2]; eye, read-out: eye % ID/g): 0.64 %ID/g
tissue uptake at 2 h ([2]; eye, read-out: eye % ID/g): 0.56 %ID/g
tissue uptake at 4 h ([2]; eye, read-out: eye % ID/g): 0.34 %ID/g
tissue uptake at 6 h ([2]; eye, read-out: eye % ID/g): 0.13 %ID/g
tissue uptake at 24 h ([2]; eye, read-out: eye % ID/g): 0.03 %ID/g
tissue uptake at 8 h ([2]; eye, 8 h, read-out: eye % ID/g): 0.07 %ID/g
tissue uptake at 12 h ([2]; eye, read-out: eye % ID/g): 0.03 %ID/g
tissue uptake at 1 h [2, 4]: 3.76 %ID/g
tissue uptake at 2 h [2, 4]: 2.35 %ID/g
tissue uptake at 4 h [2, 4]: 1.56 %ID/g
tissue uptake at 6 h [2, 4]: 0.52 %ID/g
tissue uptake at 8 h ([2]; intestine, 8 h, read-out: intestine % ID/g): 0.15 %ID/g
tissue uptake at 12 h [2, 4]: 0.08 %ID/g
tissue uptake at 24 h [2, 4]: 0.03 %ID/g
tissue uptake at 1 h [2, 5]: 7.63 %ID/g
tissue uptake at 2 h [2, 5]: 5.9 %ID/g
tissue uptake at 4 h [2, 5]: 4.28 %ID/g
tissue uptake at 6 h [2, 5]: 0.99 %ID/g
tissue uptake at 24 h [2, 5]: 0.06 %ID/g
tissue uptake at 8 h ([2]; kidney, 8 h, read-out: kidney % ID/g): 0.28 %ID/g
tissue uptake at 12 h [2, 5]: 0.1 %ID/g
tissue uptake at 1 h ([2]; liver, read-out: liver % ID/g): 5.27 %ID/g
tissue uptake at 2 h ([2]; liver, read-out: liver % ID/g): 3.5 %ID/g
tissue uptake at 4 h ([2]; liver, read-out: liver % ID/g): 2.28 %ID/g
tissue uptake at 6 h ([2]; liver, read-out: liver % ID/g): 0.94 %ID/g
tissue uptake at 24 h ([2]; liver, read-out: liver % ID/g): 0.13 %ID/g
tissue uptake at 8 h ([2]; liver, 8 h, read-out: liver % ID/g): 0.52 %ID/g
tissue uptake at 12 h ([2]; liver, read-out: liver % ID/g): 0.28 %ID/g
tissue uptake at 1 h ([2]; lungs, read-out: lungs % ID/g): 7.77 %ID/g
tissue uptake at 2 h ([2]; lungs, read-out: lungs % ID/g): 4.71 %ID/g
tissue uptake at 4 h ([2]; lungs, read-out: lungs % ID/g): 3.6 %ID/g
tissue uptake at 6 h ([2]; lungs, read-out: lungs % ID/g): 1.25 %ID/g
tissue uptake at 8 h ([2]; lungs, 8 h, read-out: lungs % ID/g): 0.35 %ID/g
tissue uptake at 12 h ([2]; lungs, read-out: lungs % ID/g): 0.08 %ID/g
tissue uptake at 24 h ([2]; lungs, read-out: lungs % ID/g): 0.05 %ID/g
tissue uptake at 1 h [2, 6]: 1.3 %ID/g
tissue uptake at 2 h [2, 6]: 0.93 %ID/g
tissue uptake at 4 h [2, 6]: 0.51 %ID/g
tissue uptake at 6 h [2, 6]: 0.33 %ID/g
tissue uptake at 24 h [2, 6]: 0.01 %ID/g
tissue uptake at 8 h ([2]; muscle, 8 h, read-out: muscle % ID/g): 0.08 %ID/g
tissue uptake at 12 h [2, 6]: 0.01 %ID/g
tissue uptake at 1 h [2, 7]: 3.99 %ID/g
tissue uptake at 2 h [2, 7]: 2.28 %ID/g
tissue uptake at 4 h [2, 7]: 1.39 %ID/g
tissue uptake at 6 h [2, 7]: 0.36 %ID/g
tissue uptake at 8 h ([2]; pancreas, 8 h, read-out: pancreas % ID/g): 0.12 %ID/g
tissue uptake at 12 h [2, 7]: 0.06 %ID/g
tissue uptake at 24 h [2, 7]: 0.05 %ID/g
tissue uptake at 1 h [2, 8]: 0.46 %ID/g
tissue uptake at 2 h [2, 8]: 0.35 %ID/g
tissue uptake at 4 h [2, 8]: 0.2 %ID/g
tissue uptake at 6 h [2, 8]: 0.12 %ID/g
tissue uptake at 24 h [2, 8]: 0.01 %ID/g
tissue uptake at 8 h ([2]; plasma, 8 h, read-out: plasma % ID/g): 0.04 %ID/g
tissue uptake at 12 h [2, 8]: 0.02 %ID/g
tissue uptake at 1 h [2, 9]: 4.11 %ID/g
tissue uptake at 2 h [2, 9]: 2.12 %ID/g
tissue uptake at 4 h [2, 9]: 1.07 %ID/g
tissue uptake at 6 h [2, 9]: 0.28 %ID/g
tissue uptake at 8 h ([2]; spleen, 8 h, read-out: spleen % ID/g): 0.11 %ID/g
tissue uptake at 12 h [2, 9]: 0.04 %ID/g
tissue uptake at 24 h [2, 9]: 0.02 %ID/g
tissue uptake at 1 h [2, 10]: 2.49 %ID/g
tissue uptake at 2 h [2, 10]: 1.51 %ID/g
tissue uptake at 4 h [2, 10]: 1.16 %ID/g
tissue uptake at 6 h [2, 10]: 0.49 %ID/g
tissue uptake at 8 h ([2]; stomach, 8 h, read-out: stomach % ID/g): 0.22 %ID/g
tissue uptake at 12 h [2, 10]: 0.07 %ID/g
tissue uptake at 24 h [2, 10]: 0.04 %ID/g
tissue uptake at 1 h [2, 11]: 5.11 %ID/g
tissue uptake at 2 h [2, 11]: 2.9 %ID/g
tissue uptake at 4 h [2, 11]: 1.71 %ID/g
tissue uptake at 6 h [2, 11]: 0.95 %ID/g
tissue uptake at 8 h ([2]; submaxillary glands, 8 h, read-out: submaxillary glands % ID/g): 0.24 %ID/g
tissue uptake at 12 h [2, 11]: 0.04 %ID/g
tissue uptake at 24 h [2, 11]: 0.03 %ID/g
tissue uptake at 1 h ([2]; tumor, read-out: tumor % ID/g): 3.51 %ID/g
tissue uptake at 2 h ([2]; tumor, read-out: tumor % ID/g): 3.17 %ID/g
tissue uptake at 4 h ([2]; tumor, read-out: tumor % ID/g): 3.25 %ID/g
tissue uptake at 6 h ([2]; tumor, read-out: tumor % ID/g): 1.96 %ID/g
tissue uptake at 24 h ([2]; tumor, read-out: tumor % ID/g): 0.07 %ID/g
tissue uptake at 8 h ([2]; tumor, up to 8 hours, Beu, read-out: intratumoral concentration): > 1 %ID/g
tissue uptake at 8 h ([2]; tumor, 8 h, read-out: tumor % ID/g): 1.07 %ID/g
tissue uptake at 12 h ([2]; tumor, read-out: tumor % ID/g): 0.36 %ID/g
tumoral definition in scintillation images ([3]; ^125 I and ^123 I-A, i.v.): good tumoral definition
early images ([3]; considerable intraabdominal and pulmonary radioactivity): more difficult to interpret
quality of tumor images ([3]; from 4 h): good quality
intratumoral necrosis zones ([3]; in vivo): not visualized
size of human melanoma imaged ([3]; in vivo): less than 5 mm

Reference: US5190741A, “Agents for diagnosing and treating melanomas, aromatic halogenated derivatives usable as such agents and their preparation” (Institut National de la Sante et de la Recherche Medicale …, priority 1989, dated 1993)
